14 molecules from ChEMBL document CHEMBL1127502, “Mixed 5-HT1A/D-2 activity of a new model of arylpiperazines: 1-aryl-4-[3-(1,2-dihydronaphthalen-4-yl)-n-propyl]piperazines. 1. Synthesis and structure-activity relationships” (J Med Chem, 1994) can be followed below.

The target of experiment [1] is T1, D(2) dopamine receptor (Rattus norvegicus, UniProt P61169). The experiment is described as follows: Inhibition of binding of radioligand [3H]spiroperidol to dopamine D2 receptor in rat striatal membranes. The experiment is classed as cell membranes, Membrane.
T1 sequence (P61169 whole entry): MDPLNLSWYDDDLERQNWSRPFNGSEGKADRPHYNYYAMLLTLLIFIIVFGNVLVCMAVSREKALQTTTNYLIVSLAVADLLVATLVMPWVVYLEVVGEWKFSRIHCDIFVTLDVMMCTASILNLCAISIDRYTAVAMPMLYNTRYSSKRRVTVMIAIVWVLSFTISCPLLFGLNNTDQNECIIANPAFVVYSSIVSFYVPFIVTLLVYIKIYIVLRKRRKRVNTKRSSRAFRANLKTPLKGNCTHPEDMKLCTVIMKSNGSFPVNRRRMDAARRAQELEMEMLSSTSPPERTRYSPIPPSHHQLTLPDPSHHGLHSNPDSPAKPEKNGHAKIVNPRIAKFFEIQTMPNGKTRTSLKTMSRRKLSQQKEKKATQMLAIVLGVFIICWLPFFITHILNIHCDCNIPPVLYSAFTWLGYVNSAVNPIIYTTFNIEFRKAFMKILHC
The subject of a further experiment is Rattus norvegicus. Nature of the experiment: Effective dose required to inhibit behavior effects induced by 8-OH-DPAT in reserpinized rats after subcutaneous administration. It is filed as functional. As to conditions: sc.
In experiment [2] the target is Serotonin 2 (5-HT2) receptor (Rattus norvegicus, UniProt P30994+P08909+P14842). The experiment is described as follows: Inhibition of binding of radioligand [3H]ketanserin to 5-hydroxytryptamine 2 receptor in rat cerebral cortex. It is filed as tissue-based.
Experiment [3] addresses T2, 5-hydroxytryptamine receptor 1A (Rattus norvegicus, UniProt P19327).
T2 sequence (P19327 whole entry): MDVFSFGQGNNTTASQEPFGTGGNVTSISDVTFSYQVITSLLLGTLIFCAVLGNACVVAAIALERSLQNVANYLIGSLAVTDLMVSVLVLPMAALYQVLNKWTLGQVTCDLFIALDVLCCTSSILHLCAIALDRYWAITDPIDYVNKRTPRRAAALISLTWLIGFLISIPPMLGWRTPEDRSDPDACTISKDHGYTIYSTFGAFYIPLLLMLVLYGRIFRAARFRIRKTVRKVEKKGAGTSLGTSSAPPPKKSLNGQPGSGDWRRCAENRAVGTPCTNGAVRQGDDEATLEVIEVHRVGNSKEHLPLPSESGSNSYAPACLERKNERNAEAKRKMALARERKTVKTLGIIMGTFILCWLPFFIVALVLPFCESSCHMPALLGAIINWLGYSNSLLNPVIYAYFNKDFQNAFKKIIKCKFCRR
Nature of the experiment: In vitro ability to inhibit binding of radioligand [3H]8-OH-DPAT to 5-hydroxytryptamine 1A receptor in rat cerebral cortex. It is filed as tissue-based.

Experiment [4] concerns the target T1, D(2) dopamine receptor. The experiment is described as follows: In vitro ability to inhibit binding of radioligand [3H]spiroperidol to dopamine D2 receptor in rat corpora striata.
For experiment [5], the target named is T1, D(2) dopamine receptor. Nature of the experiment: In vito ability to inhibit binding of radioligand [3H]spiroperidol to dopamine D2 receptor in rat corpora striata.
Experiment [6] deals with T1, D(2) dopamine receptor. The experiment is described as follows: In vitro ability to inhibit binding of radioligand [3H]spiroperidol to dopamine D2 receptor in rat striatal membranes. The experiment is classed as cell membranes, Membrane.

Usually IC50 stands for the concentration needed to halve the response being measured. What is called ED50 is the midpoint of the dose-response relation. Lower therefore signals an effect at a small dose. What is called Ki is a dissociation constant, usually derived from enzyme kinetics or from competition with a known ligand. The low end stands for tighter binding, the high end for weaker binding.

For the molecule `COc1cccc2c1C(CCCN1CCN(c3cccc(C(F)(F)F)c3)CC1)=CCC2`, the figures for the IC50 (on D(2) dopamine receptor [1]; in experiment [2]; in experiment [3]) were 0.644 µM, 2.37 µM and 0.0559 µM, respectively. The molecule also returned an ED50 in the experiment on Rattus norvegicus of 24.2 mg/kg.
Consider `COc1cccc2c1C(CCCN1CCN(c3cccc(Cl)c3)CC1)=CCC2`, for which the figures for the half-inhibitory concentration (IC50) (at D(2) dopamine receptor [1]; in experiment [2]; in experiment [3]) were 0.484 µM, 1.34 µM and 0.0314 µM, respectively.
Taken in the same sequence, the figures for `COc1ccc2c(c1)CCC=C2CCCN1CCN(c2cc(OC)ccc2OC)CC1` were 0.201 µM, 0.932 µM and 0.161 µM.
For `COc1ccc2c(c1)CCC=C2CCCN1CCN(c2ccccc2OC)CC1`, the values for the IC50 (at D(2) dopamine receptor [1]; in experiment [2]; in experiment [3]) were 0.0906 µM, 0.391 µM and 0.002 µM, respectively. Besides, the 50% effective dose (ED50) with Rattus norvegicus stood at 0.76 mg/kg. Also, the Ki at D(2) dopamine receptor [4] is 0.0224 µM; in experiment [3], 0.00178 µM.
As to `COc1ccc2c(c1)CCC=C2CCCN1CCN(c2ccccn2)CC1`, the IC50 is 0.778 µM on D(2) dopamine receptor [1], 0.146 µM in experiment [2] and 0.0636 µM in experiment [3].
Taken in the same sequence, the figures for `COc1ccc2c(c1)CCC=C2CCCN1CCN(c2ccccc2)CC1` were 0.777 µM, 0.119 µM and 0.147 µM.
Taken in the same sequence, the figures for `COc1ccc2c(c1)CCC=C2CCCN1CCN(c2cccc(C(F)(F)F)c2)CC1` were 1.29 µM, 1.17 µM and 0.138 µM.
Taken in the same sequence, the figures for `COc1ccc2c(c1)CCC=C2CCCN1CCN(c2cccc(Cl)c2)CC1` were 0.768 µM, 0.133 µM and 0.131 µM.
As for `COc1ccccc1N1CCN(CCCC2=CCCc3cccc(OC)c32)CC1`, the figures for the IC50 (on D(2) dopamine receptor [1]; in experiment [2]; in experiment [3]) were 0.0174 µM, 0.77 µM and 0.0088 µM, respectively.
Taken in the same sequence, the figures for `COc1ccc2c(c1)CCC=C2CCCN1CCNCC1` were > 10 µM, > 10 µM and > 10 µM.
Turning to `COc1cccc2c1C(CCCN1CCN(c3ccccc3)CC1)=CCC2`, the results for the 50% inhibitory concentration (IC50) (on D(2) dopamine receptor [1]; in experiment [2]) were 0.303 µM and 0.204 µM, respectively.
As to `COc1cccc2c1C(CCCN1CCN(c3ccccn3)CC1)=CCC2`, the IC50 at D(2) dopamine receptor [1] was 0.119 µM; in experiment [2], 0.205 µM; in experiment [3], 0.0014 µM. Besides, the Ki was 0.0295 µM at D(2) dopamine receptor [5] and 0.00126 µM in experiment [3].
With `COc1ccccc1N1CCN(CCCC2=CCCc3ccccc32)CC1`, the figures for the IC50 (on D(2) dopamine receptor [1]; in experiment [2]; in experiment [3]) were 0.0147 µM, 0.104 µM and 0.0157 µM, respectively.
On to `COc1ccccc1N1CCN(CCCCN2C(=O)c3ccccc3C2=O)CC1` [NAN-190], for which the Ki at D(2) dopamine receptor [6] was 0.00955 µM.
